30 molecules from US6528532B1, “Urea derivatives as HIV aspartyl protease inhibitors” (Pharmacor Inc., priority 2002, dated 2003) can be followed below.

The target in this test is HIV protease (Human immunodeficiency virus type 1 group M subtype B, UniProt P04585). In words: Enzymatic (FRET fluorometric) assay for determining the inhibition constant (Ki) of compounds targeting the HIV protease. The format is biochemical. As to conditions: FRET substrate (EDANS/DABCYL), equation of Henderson; read-out: Ki. The source says: Enzymatic Assay for Determining the Inhibition Constant (Ki) of Synthetic Compounds Targeting the HIV Protease
This is a fluorometric assay based on the cleavage by protease of a substrate carrying a donor group (EDANS) and an acceptor group (DABCYL) on each side of the cleavage site, interacting together through fluorescence resonance energy transfer (FRET) as described by Matayoshi et al. (Science 247:[…], 1990).
After calculation of Vo and Vi, the inhibition constant (Ki) of the compound is determined using the equation of Henderson: [formula]
where Vo=the enzyme's initial velocity
Vi=the enzyme velocity in the presence of the inhibitory compound,
[I]=inhibitor concentration, [S]=substrate concentration,
Km=Michaelis-Menten constant and Kiapp=apparent Ki
Graphs are traced and the Ki determined using GraphPad Prism software v. 3.0.
Take `Cc1ccc(S(=O)(=O)N(CC(C)C)[C@@H](CCCCNC(=O)N(C)Cc2ccccc2)C(=O)O)cc1` [Example 40, Nα-Isobutyl-Nα-(4-methylbenzenesulfonyl)-Nε-[(N′-benzyl-N′-methyl)aminocarbonyl]-L-lysine]: the Ki was 55 nM.

Turning to `Cc1ccc(S(=O)(=O)N(CC(C)C)[C@@H](CCCCNC(=NC#N)NCc2ccccc2)C(=O)O)cc1` [Example 28, Nα-Isobutyl-Nα-(4-methylbenzenesulfonyl)-Nε-(benzylaminocarbonyl-N-cyanoamidine)-L-lysine], the inhibitory constant (Ki) was determined as 63 nM. Next, `Cc1ccc(S(=O)(=O)N(CC(C)C)[C@H](CO)CCCCNC(=O)N(Cc2ccccc2)Cc2ccc(N)cc2)cc1` [Example 64, (2S) 2-N-Isobutyl-2-N-(4-methylbenzenesulfonyl)-6-N-[N′-(4-aminobenzyl)-N′-benzylaminocarbonyl]-2,6-diaminohexanol]: 21 nM.

On to `Cc1ccc(S(=O)(=O)N(CC(C)C)[C@H](CO)CCCCNC(=O)N(Cc2ccccc2)Cc2cccc(N)c2)cc1` [Example 63, (2S) 2-N-Isobutyl-2-N-(4-methylbenzenesulfonyl)-6-N-[N′-(3-aminobenzyl)-N′-benzylaminocarbonyl]-2,6-diaminohexanol], for which the Ki was found to be 54 nM.

Turning to `Cc1ccc(S(=O)(=O)N(CC(C)C)[C@@H](CCCCNC(=O)N(Cc2ccncc2)Cc2ccncc2)C(=O)O)cc1` [Example 44, Nα-Isobutyl-Nα-(4-methylbenzenesulfonyl)-Nε-[N′,N′-di-(4-picolyl)aminocarbonyl]-L-lysine], the Ki was 187 nM.

On to `CCC(C)CN(C(CO)CCCCNC(=O)N(Cc1ccc2c(c1)OCO2)Cc1cccs1)S(=O)(=O)c1ccc(N)cc1` [Example 99, (2S) 2-N-(4-Aminobenzenesulfonyl)-2-N-(2-methylbutyl)-6-N-[N′-(2-thiophenemethyl)-N′-piperonylaminocarbonyl]-2,6-diaminohexanol], for which the Ki was determined as 24 nM. Next, `CC(C)CCN([C@H](CO)CCCCNC(=O)N(Cc1ccc(C(F)(F)F)cc1)Cc1ccc2c(c1)OCO2)S(=O)(=O)c1ccc(N)cc1` [Example 94, (2S) 2-N-(4-Aminobenzenesulfonyl)-2-N-(3-methylbutyl)-6-N-[N′-(4-trifluoromethylbenzyl)-N′-piperonylaminocarbonyl]-2,6-diaminohexanol]: 3 nM. Next, `CC(C)CN([C@@H](CCCCNC(=O)N(Cc1ccccc1)Cc1ccncc1)C(=O)O)S(=O)(=O)c1ccc(N)cc1` [Example 48, Nα-(4-Aminobenzenesulfonyl)-Nα-isobutyl-Nε-[N′-benzyl-N′-(4-picolyl)aminocarbonyl]-L-lysine]: 12 nM. Next, `CC(C)CN([C@H](CO)CCCCNC(=O)N(Cc1ccccc1)Cc1ccncc1)S(=O)(=O)c1ccc(N)cc1` [Example 52, (2S) 2-N-(4-Aminobenzenesulfonyl)-2-N-isobutyl-6-N-[N′-benzyl-N′-(4-picolyl)aminocarbonyl]-2,6-diaminohexanol]: 90 nM; `CC(C)CN([C@H](CO)CCCCNC(=O)N(Cc1cccc(F)c1)C1CCCCC1)S(=O)(=O)c1ccc(N)cc1` [Example 71, (2S) 2-N-(4-Aminobenzenesulfonyl)-2-N-isobutyl-6-N-[N′-cyclohexyl-N′-(3-fluorobenzyl)aminocarbonyl]-2,6-diaminohexanol]: 235 nM; `Cc1ccc(S(=O)(=O)N(CC(C)C)[C@@H](CCCCNC(=S)N(Cc2ccccc2)Cc2ccccc2)C(=O)O)cc1` [Example 37, Nα-Isobutyl-Nα-(4-methylbenzenesulfonyl)-Nε-(N′,N′-dibenzylaminothiocarbonyl)-L-lysine]: 12 nM.

On to `COc1ccc(CN(Cc2ccncc2)C(=O)NCCCC[C@@H](CO)N(CC(C)C)S(=O)(=O)c2ccc(N)cc2)cc1` [Example 53, (2S) 2-N-(4-Aminobenzenesulfonyl)-2-N-isobutyl-6-N-[N′-(4-methoxybenzyl)-N′-(4-picolyl)aminocarbonyl]-2,6-diaminohexanol], for which the Ki came to 90 nM. Next, `Cc1ccc(S(=O)(=O)N(CC(C)C)[C@@H](CCCCNC(=O)N[C@@H]2CCc3ccccc32)C(=O)O)cc1` [Example 24, (1S,1′R) Nα-Isobutyl-Nα-(4-methylbenzenesulfonyl)-Nε-(indanyl-1′-aminocarbonyl)-S-lysine]: 196 nM; `CC(C)CN([C@H](CO)CCCCNC(=O)N(Cc1ccccc1)Cc1ccc(F)cc1)S(=O)(=O)c1ccc(N)cc1` [Example 68, (2S) 2-N-(4-Aminobenzenesulfonyl)-2-N-isobutyl-6-N-[N′-benzyl-N′-(4-fluorobenzyl)aminocarbonyl]-2,6-diaminohexanol]: 3.3 nM; `Cc1ccc(S(=O)(=O)N(CC(C)C)[C@@H](CCCCNC(=O)N(Cc2ccccc2)Cc2ccncc2)C(=O)O)cc1` [Example 38, Nα-Isobutyl-Nα-(4-methylbenzenesulfonyl)-Nε-[N′-benzyl-N′-(4-picolyl)aminocarbonyl]-L-lysine]: 3.7 nM. For `Cc1ccc(S(=O)(=O)N(CC(C)C)[C@@H](CCCCNC(=O)NCc2ccccc2)C(=O)O)cc1` [Example 2, Nα-Isobutyl-Nα-(4-methylbenzenesulfonyl)-Nε-(benzylaminocarbonyl)-L-lysine], the Ki came to 32 nM. Next, `Cc1ccc(S(=O)(=O)N(CC(C)C)[C@@H](CCCCNC(=S)NCCc2c[nH]c3ccccc23)C(=O)O)cc1` [Example 15]: 111 nM; `Cc1ccc(S(=O)(=O)N(CC(C)C)[C@H](CO)CCCCNC(=O)N(Cc2ccccc2)Cc2ccccc2N)cc1` [Example 62, (2S) 2-N-Isobutyl-2-N-(4-methylbenzenesulfonyl)-6-N-[N′-(2-aminobenzyl)-N′-benzylaminocarbonyl]-2,6-diaminohexanol]: 39 nM. Next, `CC(C)CN([C@H](CO)CCCCNC(=O)N(Cc1ccc(C(F)(F)F)cc1)Cc1cccc2c1OCO2)S(=O)(=O)c1ccc(N)cc1` [Example 90, (2S) 2-N-(4-Aminobenzenesulfonyl)-2-N-isobutyl-6-N-[N′-(4-trifluoromethylbenzyl)-N′-(2,3-methylenedioxy)benzylaminocarbonyl]-2,6-diaminohexanol]: 8.9 nM. Next, `Cc1ccc(S(=O)(=O)N(CC(C)C)[C@@H](CCCCNC(=O)N(Cc2ccccc2)Cc2ccccc2)C(=O)O)cc1` [Example 32, Nα-Isobutyl-Nα-(4-methylbenzenesulfonyl)-Nε-(N′,N′-dibenzylaminocarbonyl)-L-lysine]: 7.2 nM. Turning to `CC(C)CCN([C@H](CO)CCCCNC(=O)N(Cc1ccc([N+](=O)[O-])cc1)Cc1ccc2c(c1)OCO2)S(=O)(=O)c1ccc(N)cc1` [Example 89, (2S) 2-N-(4-Aminobenzenesulfonyl)-2-N-(3-methylbutyl)-6-N-[N′-(4-nitrobenzyl)-N′-piperonylaminocarbonyl]-2,6-diaminohexanol], the Ki is 2.2 nM. With `CC(C)CN([C@@H](CCCCNC(=O)NCc1ccccc1)C(=O)O)S(=O)(=O)c1ccc(N)cc1` [Example 18, Nα-(4-Aminobenzenesulfonyl)-Nα-isobutyl-Nε-benzylaminocarbonyl-L-lysine], the Ki is 200 nM. Next, `CC(C)CN([C@H](CO)CCCCNC(=O)N(Cc1ccc(F)cc1)Cc1cccnc1)S(=O)(=O)c1ccc(N)cc1` [Example 70, (2S) 2-N-(4-Aminobenzenesulfonyl)-2-N-isobutyl-6-N-[N′-(4-fluorobenzyl)-N′-(3-picolyl)aminocarbonyl]-2,6-diaminohexanol]: 30 nM. Next, `CC(C)CN([C@H](CO)CCCCNC(=O)N(Cc1ccsc1)Cc1ccc2c(c1)OCO2)S(=O)(=O)c1ccc(N)cc1` [Example 81, (2S) 2-N-(4-Aminobenzenesulfonyl)-2-N-isobutyl-6-N-[N′-(3-thiophenemethyl)-N′-piperonylaminocarbonyl]-2,6-diaminohexanol]: 6.3 nM. Next, `Cc1ccc(S(=O)(=O)N(CC(C)C)[C@@H](CCCCNC(=O)N(Cc2ccccc2)C(C)C)C(=O)O)cc1` [Example 39, Nα-Isobutyl-Nα-(4-methylbenzenesulfonyl)-Nε-[(N′-benzyl-N′-iso-propyl)aminocarbonyl]-L-lysine]: 19 nM; `Cc1ccc(S(=O)(=O)N(CC(C)C)[C@@H](CCCCNC(=O)N(Cc2ccccc2)Cc2cccnc2)C(=O)O)cc1` [Example 42, Nα-Isobutyl-Nα-(4-methylbenzenesulfonyl)-Nε-[N′-benzyl-N′-(3-picolyl)aminocarbonyl]-L-lysine]: 3.7 nM. In the case of `CCC(C)CN(C(CO)CCCCNC(=O)N(Cc1ccccc1)Cc1cccc2c1OCO2)S(=O)(=O)c1ccc(N)cc1` [Example 97, (2S) 2-N-(4-Aminobenzenesulfonyl)-2-N-(2-methylbutyl)-6-N-[N′-benzyl-N′-(2,3-methylenedioxy)benzylaminocarbonyl]-2,6-diaminohexanol], the Ki worked out at 21 nM. Next, `CC(C)CN([C@H](CO)CCCCNC(=O)NCc1ccc2c(c1)OCO2)S(=O)(=O)c1ccc(N)cc1` [Example 74, (2S) 2-N-(4-Aminobenzenesulfonyl)-2-N-isobutyl-6-N-piperonylaminocarbonyl-2,6-diaminohexanol]: 22 nM. Next, `CC(C)CN([C@H](CO)CCCCNC(=O)N(Cc1ccccc1)Cc1cccnc1)S(=O)(=O)c1ccc(N)cc1` [Example 50, (2S) 2-N-(4-Aminobenzenesulfonyl)-2-N-isobutyl-6-N-[N′-benzyl-N′-(3-picolyl)aminocarbonyl]-2,6-diaminohexanol]: 34 nM. Next, `CC(C)CN([C@H](CO)CCCCNC(=O)N[C@@H](Cc1c[nH]c2ccccc12)C(=O)O)S(=O)(=O)c1ccc(N)cc1` [Example 65, (2S,2′S) 2-N-(4-Aminobenzenesulfonyl)-2-N-isobutyl-6-N-(S-tryptophanyl-N′-carbonyl)-2,6-diaminohexanol]: > 300 nM.
